PMC3967790 (Journal of pharmaceutical sciences, 2013)
Values after ≈ are worked out from the molar mass of the structure shown. Where two headings read alike, the source gives them in different places.

Legend:
[1] = mouse, cited from earlier work
[2] = Equilibrium solubility of elacridar in microemulsion components; format: physicochemical; settings: 37 °C, oil or lipid, thermodynamic from solid
[3] = FVB, mouse, brain, oral, 20 mg/kg

Compound | bioavailability ([1]; intraperitoneal dose, suspension) | bioavailability ([1]; oral dose, suspension at 100 mg/kg) | solubility at 24 h ([2]; Captex 300 (oil)) | solubility at 24 h ([2]; Captex 355 (oil)) | concentration at 1 h [3]
COc1cc2c(cc1OC)CN(CCc1ccc(NC(=O)c3cccc4c(=O)c5cccc(OC)c5[nH]c34)cc1)CC2 [elacridar, N-(4-(2-(1,2,3,4-tetrahydro-6,7-dimethoxy-2-isoquinolinyl)ethyl)phenyl)-9,10-dihydro-5-methoxy-9-oxo-4-acridine carboxamide] | ~1% | about 22% | 300 ± 1 µg/mL (≈ 532 µM) | 300 ± 1 µg/mL (≈ 532 µM) | –
C#Cc1cccc(Nc2ncnc3cc(OCCOC)c(OCCOC)cc23)c1 [erlotinib] | – | – | – | – | 76.4 ± 7.8 ng/mL
